Experimental data from article PMC4492822 (EMBO Molecular Medicine, 2015).

Legend:
[1] = design: species or system SCID mice; details: mouse, in vivo
Experimental: Figure 5 Toxicity studies of RK-33 in mice • Following injection of 20 mg/kg of RK-33, twice a week for 7 weeks, extensive histopathological examination was carried out following necropsy. Identical patterns were observed both in the control and in the treated mice (n = 2). Samples were stained with H&E. Scale bar is 50 μm. • Pharmacokinetics of RK-33 in SCID mice at various time intervals. Results are mean ± SD from 5 mice. LC-MS/MS method was used to determine concentration of RK-33 in mouse plasma and tissue. • Liquid chromatography–mass spectrometry (LC-MS/MS) analysis was performed to determine different metabolites of RK-33. • RK-33 and metabolites characterized by LC-MS/MS in human liver microsomes using the scan mode function of the LC-MS/MS. • HAPI cells were treated with RK-33 (10 μM), HA14-1 (25 μM), or DMSO vehicle, followed by oligomycin (oligo, 0.5 μg/ml), FCCP (3 μM), and antimycin A (AA, 1 μM) while oxygen consumption rate (OCR) was measured. Pyruvate (10 mM) was added in combination with FCCP to ensure that substrate supply was not rate-limiting for maximal OCR. Data are mean ± SD from 2 to 3 wells and representative of independent experiments performed with two different HAPI passages. […] Significance was assessed by two-sided, unpaired t-test. […]

[2] = test system: Twist1/Kras^G12D lung tumors; assay: Twist1/KrasG12D lung tumor model, fractionated radiation (10 fractions of 3 Gy); type: in vivo, mouse; details: 3 weeks following treatment
Experimental: Inducible Twist1/Kras^G12D transgenic mice in the FVB/N inbred background were of the genotype: CCSP-rtTA/tetO-KrasG12D/Twist1-tetO-luc (Tran et al, [2012]). All the mice were weaned 3–4 weeks of age and then placed on dox at 4–6 weeks of age. Mice were treated with similar levels of tumor burden per micro-CT and were typically 20–30 weeks old. Mice were treated as in Fig6C and H. Each group consisted of mice, of which multiple index tumors were followed in time by micro-CT and quantified by a board-certified radiation oncologist (JZ) in a blinded fashion. Bi-dimensional measurements were made on tumors using serial examinations and tumor volumes calculated using the equation Volume = π/6 × 1.65 (length × width) × 3/2. Volumes were normalized to the starting volume, t = 0 before treatment. For 15-Gy SABR experiments, the breakdown of animal usage is (1) RT = 3 female mice, (2) RK-33 = 3 females and 1 male mice, (3) carboplatin = 3 male mice, (4) RT + carboplatin = 3 female mice, and (5) RT + RK-33 = 5 female mice. […]
The mice underwent micro-CT imaging by use of the Small Animal Radiation Research Platform (SARRP) irradiator described earlier (Wong et al, [2008]). […] Tumor volumes were quantified from the CT dataset with Pinnacle3 software v.8.1y (Philips Inc, Madison, WI) as described previously (Tran et al, [2011]; Zeng et al, [2013]). […]

A549 cells = assay: Immunoblotting of cell cycle, apoptosis, MAPK and DNA repair proteins; type: cell-based, human
Experimental: Cell lysate was prepared with TB buffer method. For immunoblotting, ~25 μg protein was loaded on 10% SDS–PAGE gels. […] The blots were developed with clarity Western ECL (Bio-Rad, Hercules, CA, USA) and imaged with G:BOX Chemi XR5 (Syngene, Frederick, MD, USA).

diimidazo[4,5-d:4′,5′-f]-[1,3]diazepine [RK-33]
accumulation in organs (biodistribution) [1]: able to accumulate at therapeutic dose in various organs | decrease in tumor growth, RK-33 and radiation versus radiation [2]: not significant | DNA repair proteins ATR and XRCC4 (A549 cells; 6 μM for 4 h, then 5 Gy): decrease of ATR but not XRCC4 | phosphorylated ERK2 and ERK1 (A549 cells; 7.5 μM or 10 μM, 24 h): reduction of phosphorylated ERK2 and ERK1 | caspase cleavage (A549 cells; 10 μM): cleavage of caspases 7 and 9 | cyclin D1 protein (A549 cells; 10 μM, especially evident 2 h after treatment): substantial reduction of cyclin D1
